The subject of assay [1] is human lymphoma cell line RAMOS cells. Put plainly: Cell growth inhibition test using RAMOS cell, MTT assay. The note with it: 50% growth inhibition concentration. It counts as cell-based. The procedure, abridged: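 Cells in RPMI1640 with 10% FBS were exposed to compound (DMSO ≤1%) for 3 days at 37° C, 5% CO2. Viability was read by MTT (4 h, formazan in DMSO, OD 540/660 nm) against a day-0 plate; GI50 was interpolated from T/C % growth rates.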
(Formazan colour is commonly taken as a measure of viable cells.)

The test system is the same in assay [2]. As to the kind of experiment: Cell growth inhibition test using RAMOS cell, ATP assay (CellTiter-Glo). The following applies: Homo sapiens, Ramos, 72 h, cultured 3 days, 50% growth inhibition concentration. It counts as cell-based. The procedure, abridged:
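RAMOS cells seeded at 4000 cells/well with compound and cultured 3 days at 37° C, 5% CO2; viability by CellTiter-Glo luminescence. Growth rate T/C % = 100×[(B−C)/(A−C)] using day-0 and final readings; GI50 interpolated from the two concentrations bracketing 50% growth.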
A general note: In ATP-based viability assays light output follows the ATP content of the culture.

Another assay concerns the target T1, TIP48/TIP49 complex (Homo sapiens, UniProt Q9Y230+Q9Y265).
T1 construct: made in house; host or cells: E. coli
Put plainly: ATPase assay of TIP48/TIP49 complex (ADP-Glo). It counts as biochemical. The following applies: concentration at which the ATPase activity was inhibited by 50%. The procedure, abridged: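 Compound was tested over 10 four-fold concentrations, 200 μM down to 0.0007 μM at 2% DMSO, against E. coli-derived human rTIP48/rTIP49 for 1.5 h at room temperature, pH 7.5 with ATP. ATP hydrolysis was read as ADP-Glo luminescence, normalised to complex-only and no-complex wells, then fitted to dose-response curves.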
Background: ADP-Glo first removes unused ATP, then detects ADP through luciferase.

Drawing on patent US20170107207A1, “AMINOPYRAZOLONE DERIVATIVE” (DAIICHI SANKYO COMPANY, LIMITED, priority 2014, published 2017), this text covers GI50 and IC50 for 17 compounds.

Usually GI50 stands for the concentration giving 50% growth inhibition. A low value points to more potent growth inhibition. The IC50 is the concentration needed to halve the response being measured. Read a high IC50 as a need for much substance.

T1 sequence (Q9Y230 whole entry): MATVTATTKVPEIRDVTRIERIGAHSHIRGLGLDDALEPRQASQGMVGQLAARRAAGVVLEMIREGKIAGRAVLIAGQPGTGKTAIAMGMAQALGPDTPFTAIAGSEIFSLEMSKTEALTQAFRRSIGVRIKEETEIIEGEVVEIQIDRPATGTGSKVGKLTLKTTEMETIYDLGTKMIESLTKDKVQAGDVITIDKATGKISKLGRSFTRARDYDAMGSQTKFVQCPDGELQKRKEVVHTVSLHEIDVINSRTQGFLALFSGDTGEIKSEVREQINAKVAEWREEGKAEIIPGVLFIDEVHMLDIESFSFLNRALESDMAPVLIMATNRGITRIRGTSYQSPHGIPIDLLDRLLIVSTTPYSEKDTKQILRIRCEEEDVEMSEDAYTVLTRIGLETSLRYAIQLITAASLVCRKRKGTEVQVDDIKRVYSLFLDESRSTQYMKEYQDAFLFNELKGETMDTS
T1 sequence (Q9Y265 whole entry): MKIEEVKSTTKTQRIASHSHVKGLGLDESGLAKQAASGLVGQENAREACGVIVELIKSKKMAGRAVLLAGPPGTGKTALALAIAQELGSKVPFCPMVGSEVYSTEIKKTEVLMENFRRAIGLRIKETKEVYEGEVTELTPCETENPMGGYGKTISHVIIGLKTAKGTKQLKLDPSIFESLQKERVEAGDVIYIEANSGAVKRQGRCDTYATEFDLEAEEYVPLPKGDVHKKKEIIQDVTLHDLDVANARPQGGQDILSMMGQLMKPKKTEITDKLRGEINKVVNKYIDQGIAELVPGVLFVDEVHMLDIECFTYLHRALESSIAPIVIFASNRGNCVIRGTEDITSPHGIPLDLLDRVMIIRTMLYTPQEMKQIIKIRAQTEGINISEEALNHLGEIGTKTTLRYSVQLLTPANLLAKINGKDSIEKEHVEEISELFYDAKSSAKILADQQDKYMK

On to `CCOc1ccc(Cl)cc1C(=O)NCC(C)(C)CC(=O)Nc1c(CCN(C)CC(F)(F)F)n(C)n(-c2ccccc2)c1=O` [Example 39, 5-Chloro-N-{2,2-dimethyl-4-[(1-methyl-5-{2-[methyl(2,2,2-trifluoroethyl)amino]ethyl}-3-oxo-2-phenyl-2,3-dihydro-1H-pyrazol-4-yl)amino]-4-oxobutyl}-2-ethoxybenzamide], for which the GI50 in assay [1] turned out to be 99 nM; in assay [2] it was 240 nM. For the same compound, at TIP48/TIP49 complex, the 50% inhibitory concentration (IC50) turned out to be 82 nM.
For the compound `Cc1cc2cc(Cl)cc(C(=O)NCC(C)(C)CC(=O)Nc3c(CCN(C)C)n(C)n(-c4ccccc4)c3=O)c2o1` [Example 14, 5-Chloro-N-[4-({5-[2-(dimethylamino)ethyl]-1-methyl-3-oxo-2-phenyl-2,3-dihydro-1H-pyrazol-4-yl}amino)-2,2-dimethyl-4-oxobutyl]-2-methylbenzofuran-7-carboxamide], the GI50 in assay [1] came to 32 nM; in assay [2], 130 nM. On TIP48/TIP49 complex, this compound came in with an IC50 of 41 nM.
Take `CCOc1cc(F)c(Cl)cc1C(=O)NCC(C)(C)CC(=O)Nc1c(CCN(C)C)n(C)n(-c2ccccc2)c1=O` [Example 12, 5-Chloro-N-[4-({5-[2-(dimethylamino)ethyl]-1-methyl-3-oxo-2-phenyl-2,3-dihydro-1H-pyrazol-4-yl}amino)-2,2-dimethyl-4-oxobutyl]-2-ethoxy-4-fluorobenzamide]: the concentration for 50% growth inhibition (GI50) in assay [1] worked out at 35 nM; in assay [2] it was 140 nM. On TIP48/TIP49 complex, this compound showed an IC50 of 62 nM.
`Cc1cccc(-n2c(=O)c(NC(=O)CC(C)(C)CNC(=O)c3cc(Cl)cc4cc(C)oc34)c(C)n2C)n1` [Example 155, 5-Chloro-N-(4-{[1,5-dimethyl-2-(6-methyl-2-pyridyl)-3-oxopyrazol-4-yl]amino}-2,2-dimethyl-4-oxobutyl)-2-methylbenzofuran-7-carboxamide]: the GI50 in assay [1] is 59 nM; in assay [2], 190 nM. On TIP48/TIP49 complex, this compound yielded an IC50 of 59 nM.
In the case of `CCOc1ccc(Cl)cc1C(=O)NCC(C)(C)CC(=O)Nc1c(CCN(C)C)n(C)n(-c2ccccc2)c1=O` [Example 11, 5-Chloro-N-[4-({5-[2-(dimethylamino)ethyl]-1-methyl-3-oxo-2-phenyl-2,3-dihydro-1H-pyrazol-4-yl}amino)-2,2-dimethyl-4-oxobutyl]-2-ethoxybenzamide], the GI50 in assay [1] was 53 nM; in assay [2], 150 nM. Further, inhibition at TIP48/TIP49 complex was half-maximal at 53 nM (IC50).
As for `CCOc1ccc(Cl)cc1C(=O)NCC(C)(C)CC(=O)Nc1c(C)n(C)n(-c2cc(OC)ccn2)c1=O` [Example 157, 5-Chloro-2-ethoxy-N-(4-{[1-(4-methoxy-2-pyridyl)-2,3-dimethyl-5-oxopyrazol-4-yl]amino}-2,2-dimethyl-4-oxobutyl)benzamide], the GI50 in assay [1] is 120 nM; in assay [2], 430 nM. Moreover, at TIP48/TIP49 complex, the IC50 stood at 140 nM.
The like results for `CCOc1ccc(Cl)cc1C(=O)NCC(C)(C)CC(=O)Nc1c(CCN(C)C)n(CC)n(-c2ccccc2)c1=O` [Example 40, 5-Chloro-N-[4-({5-[2-(dimethylamino)ethyl]-1-ethyl-3-oxo-2-phenyl-2,3-dihydro-1H-pyrazol-4-yl}amino)-2,2-dimethyl-4-oxobutyl]-2-ethoxybenzamide] were, in that order, 27 nM, 120 nM and 33 nM.
In the case of `CCOc1ncc(Cl)cc1C(=O)NCC(C)(C)CC(=O)Nc1c(CCN(C)C)n(C)n(-c2ccccc2)c1=O` [Example 13, 5-Chloro-N-[4-({5-[2-(dimethylamino)ethyl]-1-methyl-3-oxo-2-phenyl-2,3-dihydro-1H-pyrazol-4-yl}amino)-2,2-dimethyl-4-oxobutyl]-2-ethoxypyridine-3-carboxamide], the GI50 in assay [1] turned out to be 110 nM; in assay [2], 610 nM. Also, the IC50 at TIP48/TIP49 complex turned out to be 82 nM.
Turning to `CCOc1ncc(Cl)cc1NC(=O)CC(C)(C)CC(=O)Nc1c(COC)n(C)n(-c2ccccc2)c1=O` [Example 118, N-(5-Chloro-2-ethoxy-3-pyridine)-N′-[5-(methoxymethyl)-1-methyl-3-oxo-2-phenyl-2,3-dihydro-1H-pyrazol-4-yl]-3,3-dimethylpentanediamide], the concentration for 50% growth inhibition (GI50) was 230 nM in assay [1] and 640 nM in assay [2]. This compound also showed a half-maximal inhibitory concentration (IC50) against TIP48/TIP49 complex of 65 nM.
Compound `CCOc1ccc(Cl)cc1NC(=O)CC(C)(CC(=O)Nc1c(C)n(C)n(-c2ccccc2)c1=O)OC(C)=O` (centres unmarked) [Example 102, {1-[2-(5-Chloro-2-ethoxyaniline)-2-oxoethyl]-3-[(1,5-dimethyl-3-oxo-2-phenyl-2,3-dihydro-1H-pyrazol-4-yl)amino]-1-methyl-3-oxopropyl} acetate] had a 50% growth inhibitory concentration (GI50) in assay [1] of 780 nM. The same compound showed an IC50 against TIP48/TIP49 complex of 150 nM.
For `COc1ccc(Cl)cc1C(=O)NCC(C)(C)CC(=O)Nc1c(CN(C)CCO)n(C)n(-c2ccccc2)c1=O` [Example 8, 5-Chloro-N-(4-[(5-{[2-hydroxyethyl(methyl)amino]methyl}-1-methyl-3-oxo-2-phenyl-2,3-dihydro-1H-pyrazol-4-yl)amino]-2,2-dimethyl-4-oxobutyl)-2-methoxybenzamide], in that order: 170 nM and 96 nM.
With `CCOc1ccc(Cl)cc1C(=O)NCC(C)(C)CC(=O)Nc1c(CCN(C)CC)n(C)n(-c2ccccc2)c1=O` [Example 35, 5-Chloro-2-ethoxy-N-{4-[(5-{2-[ethyl(methyl)amino]ethyl}-1-methyl-3-oxo-2-phenyl-2,3-dihydro-1H-pyrazol-4-yl)amino]-2,2-dimethyl-4-oxobutyl}benzamide], the concentration for 50% growth inhibition (GI50) in assay [1] came out at 98 nM. This compound returned a half-inhibitory concentration (IC50) against TIP48/TIP49 complex of 26 nM.
As for `Cc1c(NC(=O)CC(C)(C)CNC(=O)c2cc(Cl)ccc2OC2CC2)c(=O)n(-c2ccccc2)n1C` [Example 96], halving of growth in assay [1] (GI50) required 120 nM. At TIP48/TIP49 complex, this compound had a 50% inhibitory concentration (IC50) of 35 nM.
The like results for `CCCn1c(C)c(NC(=O)CC(C)(C)CC(=O)Nc2cc(Cl)c(F)cc2OC)c(=O)n1-c1ccccc1` [Example 138, N-(5-Chloro-4-fluoro-2-methoxyphenyl)-3,3-dimethyl-N′-(3-methyl-5-oxo-1-phenyl-2-propylpyrazol-4-yl)pentanediamide] were, in that order, 330 nM and 180 nM.
As to `CCOc1ncc(Cl)cc1C(=O)NCC(C)(C)CC(=O)Nc1c(C)n(CCN(C)C)n(-c2ccccc2)c1=O` [Example 141, 5-Chloro-N-[4-({1-[2-(dimethylamino)ethyl]-5-methyl-3-oxo-2-phenyl-2,3-dihydro-1H-pyrazol-4-yl}amino)-2,2-dimethyl-4-oxobutyl]-2-ethoxypyridine-3-carboxamide], in assay [1], the GI50 stood at 230 nM. On TIP48/TIP49 complex, this compound showed an IC50 of 160 nM.
As to `CCOc1ccc(Cl)cc1C(=O)NCC(C)(C)CC(=O)Nc1c(COC)n(C)n(-c2ccccc2)c1=O` [Example 114, 5-Chloro-2-ethoxy-N-(4-{[5-(methoxymethyl)-1-methyl-3-oxo-2-phenyl-2,3-dihydro-1H-pyrazol-4-yl]amino}-2,2-dimethyl-4-oxobutyl)benzamide], the GI50 in assay [1] stood at 42 nM; in assay [2], 140 nM. Further, on TIP48/TIP49 complex, the IC50 is 31 nM.
`COc1ccc(Cl)cc1NC(=O)CC1(CC(=O)Nc2c(C)n(C)n(-c3ccccc3)c2=O)OCCO1` [Example 98, N-(5-Chloro-2-methoxyphenyl)-2-(2-{2-[(1,5-dimethyl-3-oxo-2-phenyl-2,3-dihydro-1H-pyrazol-4-yl)amino]-2-oxoethyl}-1,3-dioxolan-2-yl)acetamide] showed a GI50 in assay [1] of 9600 nM. For the same compound, the half-inhibitory concentration (IC50) against TIP48/TIP49 complex came out at 2200 nM.
